# Source: patent EP4613859A1, “TLR SIGNALING INHIBITORY PEPTIDE AND COMPOSITION INCLUDING SAME FOR PREVENTION OR TREATMENT OF INFLAMMATORY DISEASES” (Korea Institute of Science and Technology, priority 2022, dated 2025)
# Experiments:
# [1] = test system: human MYD88; assay: Phage display screening of TIR domain-derived peptide library against immobilized MyD88, NGS analysis after four rounds; type: binding; details: for NGS count: phages remaining after fourth round
# Protocol: (§1) First, vector cloning was performed by synthesizing a DNA sequence for expressing each peptide belonging to the library constructed in Example 1. Vector cloning was performed using p3/p8 phagemids.
# (§2) After the fourth round, the remaining phages were obtained by binding to the finally immobilized target proteins, and peptide sequences binding to the target and the relative distribution of each sequence were confirmed by performing NGS analysis on phagemids in the phages.
# [2] = test system: human MAL; assay: Phage display screening of TIR domain-derived peptide library against immobilized MAL, NGS analysis after four rounds; type: binding; details: for NGS count: phages remaining after fourth round
# Protocol: as §1, §2
# [3] = P3_MyD88: library displayed on P3 coat protein
# [4] = P3_MyD88: relative distribution of the sequence in NGS
# [5] = P3_MAL: library displayed on P3 coat protein
# [6] = P3_MAL: relative distribution of the sequence in NGS
# [7] = P8_MyD88: library displayed on P8 coat protein
# [8] = P8_MyD88: relative distribution of the sequence in NGS
# [9] = P8_MAL: library displayed on P8 coat protein
# [10] = P8_MAL: relative distribution of the sequence in NGS
sequence,measurement,setting,value
PEKDNGGENAFINNIV,NGS count,[1]; [3],2498
same,Population,[1]; [4],0.73%
LKVESWRQALEKAGKL,NGS count,[2]; [5],5180
same,Population,[2]; [6],2.32%
same,NGS count,[1]; [3],16847
same,Population,[1]; [4],4.91%
YASYDDNDYYWVTHVLLRHL,NGS count,[1]; [7],5893
same,Population,[1]; [8],2.66%
HLLKEFDKKLITAFKD,NGS count,[1]; [3],2399
same,Population,[1]; [4],0.70%
RNNFIGHLYQALYRIG,NGS count,[2]; [9],3120
same,Population,[2]; [10],0.96%
HWIDWEYFVGIEDHIK,NGS count,[1]; [7],3422
same,Population,[1]; [8],1.32%
VANILGYHWIDWEYFV,NGS count,[1]; [7],2029
same,Population,[1]; [8],0.78%
KEVEGWRDALTKVASL,NGS count,[2]; [5],3758
same,Population,[2]; [6],1.41%
same,NGS count,[1]; [3],5187
same,Population,[1]; [4],1.80%
YLKWGYPWFWDRLRFA,NGS count,[2]; [5],1680
same,Population,[2]; [6],0.63%
same,NGS count,[2]; [9],517
same,NGS count,[1]; [3],7321
same,Population,[1]; [4],2.13%
FLNFRGLDVRNYFLGH,NGS count,[2]; [5],2855
same,Population,[2]; [6],1.07%
YYLDPSHLRKQSGEFG,NGS count,[1]; [3],2538
same,Population,[1]; [4],0.74%
AVDKETDKIQTPLKNA,NGS count,[1]; [3],4790
same,Population,[1]; [4],1.39%
SENYATSPWALDELVL,NGS count,[1]; [3],5494
same,Population,[1]; [4],1.89%
AYANFRQGLLRLLELA,NGS count,[2]; [9],466
WFLFTVRSAIYAMSPA,NGS count,[2]; [9],3156
same,Population,[2]; [10],0.97%
NGHESEIIKEIVDTIV,NGS count,[1]; [3],4233
same,Population,[1]; [4],1.23%
HHKGSYGEALAEHEKR,NGS count,[2]; [5],3056
same,Population,[2]; [6],1.15%
DHHLDLPRGKAIKPEILG,NGS count,[2]; [5],2280
same,Population,[2]; [6],0.86%
same,NGS count,[1]; [3],26722
same,Population,[1]; [4],7.78%
FTLAVHVRNWLVGGFI,NGS count,[2]; [9],520
RLLKWKEALHQFHSWV,NGS count,[2]; [5],14924
same,Population,[2]; [6],5.61%
AFLYTFLINLTHPTNF,NGS count,[2]; [9],51063
same,Population,[2]; [10],18.86%
LFFWESLKQLLRSDGR,NGS count,[2]; [9],22560
same,Population,[2]; [10],5.97%
PNLRTKVLNYLMRTKT,NGS count,[2]; [5],26931
same,Population,[2]; [6],10.12%
PSEVRKQTGSLAKAFA,NGS count,[1]; [3],2253
same,Population,[1]; [4],0.66%
FLSYRALEKRFGPIGQ,NGS count,[1]; [3],3289
same,Population,[1]; [4],0.96%
DPQDLQWFYERLVSLI,NGS count,[1]; [7],5730
same,Population,[1]; [8],2.21%
PQDLEWFYERLVSLIL,NGS count,[1]; [7],10568
same,Population,[1]; [8],4.07%
MFGGDTFHDFLDLISM,NGS count,[1]; [7],1489
same,Population,[1]; [8],0.57%
TSHLHHALRLNKIETF,NGS count,[1]; [3],2076
same,Population,[1]; [4],0.60%
LGYHWIDWEYFVGIED,NGS count,[1]; [7],25216
same,Population,[1]; [8],9.72%
YAFTGHLHRYLVQRGV,NGS count,[2]; [5],43764
same,Population,[2]; [6],16.44%
same,NGS count,[1]; [3],13420
same,Population,[1]; [4],3.91%
RNFVAYLFQALANKGI,NGS count,[2]; [9],27950
same,Population,[2]; [10],8.63%
AWALHQLQQIINWHET,NGS count,[2]; [9],232
same,Population,[2]; [10],0.07%
DWVWEHFFPMEEKDQT,NGS count,[1]; [7],1538
same,Population,[1]; [8],0.59%
SAAYDDFWDRLIRMIE,NGS count,[1]; [7],5335
same,Population,[1]; [8],2.06%
TFLGHLYNALVQAGIH,NGS count,[2]; [9],24732
same,Population,[2]; [10],7.64%
SFFWNKLRYHLPAPQH,NGS count,[2]; [5],2297
same,Population,[2]; [6],0.86%
YFLHFLLFSRPETEYI,NGS count,[2]; [9],17198
same,Population,[2]; [10],5.31%
WFLTAFRMAMDQVADT,NGS count,[2]; [9],353
WFYERLVSLILRDTKV,NGS count,[2]; [9],79000
same,Population,[2]; [10],24.40%
DPQDLDWFYERLVSLF,NGS count,[1]; [7],54757
same,Population,[1]; [8],21.10%
YTALTNSGFHTFRDND,NGS count,[1]; [3],17600
same,Population,[1]; [4],5.12%
DWFLSKLSQHILKREK,NGS count,[2]; [5],4580
same,Population,[2]; [6],1.72%
YLISYIFNELARAGFS,NGS count,[2]; [9],295
same,Population,[2]; [10],0.09%
ESILNQLRRSSQSIAN,NGS count,[2]; [5],3680
same,Population,[2]; [6],1.38%
same,NGS count,[1]; [3],1976
same,Population,[1]; [4],0.58%
AFFWEQLRTVLGKPTM,NGS count,[2]; [9],11826
same,Population,[2]; [10],3.65%
RGFLSHLRHHLQAKDH,NGS count,[2]; [5],15065
same,Population,[2]; [6],5.66%
YAASPWWFDELVKIVG,NGS count,[1]; [7],3433
same,Population,[1]; [8],1.32%
